# Laboratory results: patent US20110183926A1, “TREATMENT USING CONTINUOUS LOW DOSE APPLICATION OF SUGAR ANALOGS” (UNIVERSITY OF MIAMI, priority 2008, published 2011)
# System: MDA-MB-435 cells
# Assay: orthotopic human breast cancer mouse model, continuous 2-DG by intraperitoneal osmotic pump
# Format: in vivo
# Conditions: 19 μg/ml/hr or 30 mg/kg per 24 hrs continuously for 4 weeks; intraperitoneal osmotic pump filled with 328 mg/ml; MDA-MB-435 orthotopic in CD-1 nude mice
# Procedure: 2×10^6 MDA-MB-435 cells were injected orthotopically to CD-1 nude mice. After two weeks, osmotic pumps (Model 1004, Alzet Inc.) were inserted into the peritoneal cavity under general anesthesia. In one group of animals (n=9), the pumps contained 0.9% NaCl, while in the other group (n=5), the pumps were filled with 2-DG at a concentration of 328 mg/ml. Mice were weighed, and tumor measurements were taken by caliper three times weekly. Tumor measurements were converted to tumor volume by using the formula W×L^2/2. Mice were killed when either W or L exceeded 15 mm. At sacrifice, mice were weighed, and tumors were excised and checked histologically for verification of tumor growth.
smiles,measurement,value
"O=CC[C@@H](O)[C@H](O)[C@H](O)CO [2-DG, 2-deoxy-D-glucose]","tumor burden (tumor volume by caliper, W×L^2/2)",effectively reduces tumor burden
